Consider eleven molecules from ChEMBL document CHEMBL1132702, “5'-N-substituted carboxamidoadenosines as agonists for adenosine receptors” (J Med Chem, 1999).

The target in experiment [1] is T1, Adenosine receptor A2b (Homo sapiens, UniProt P29275).
T1 sequence (P29275 whole entry): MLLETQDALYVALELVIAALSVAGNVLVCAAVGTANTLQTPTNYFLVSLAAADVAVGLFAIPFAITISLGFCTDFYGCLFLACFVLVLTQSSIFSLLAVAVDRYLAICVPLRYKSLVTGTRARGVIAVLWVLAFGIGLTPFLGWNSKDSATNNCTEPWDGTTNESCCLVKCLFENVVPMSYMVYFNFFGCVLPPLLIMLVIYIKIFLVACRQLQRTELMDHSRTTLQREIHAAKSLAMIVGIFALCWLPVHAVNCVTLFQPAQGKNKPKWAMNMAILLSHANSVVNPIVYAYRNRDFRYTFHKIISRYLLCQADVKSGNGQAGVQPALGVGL
Nature of the experiment: Effective concentration for cAMP production in CHO-KI cells stably transfected with human adenosine A2B receptor cDNA. On the technique in general: Changes in cAMP serve as a functional read-out for many G protein-coupled receptors.

In experiment [2] the target is T2, Adenosine receptor A3 (Homo sapiens, UniProt P0DMS8).
T2 sequence (P0DMS8 whole entry): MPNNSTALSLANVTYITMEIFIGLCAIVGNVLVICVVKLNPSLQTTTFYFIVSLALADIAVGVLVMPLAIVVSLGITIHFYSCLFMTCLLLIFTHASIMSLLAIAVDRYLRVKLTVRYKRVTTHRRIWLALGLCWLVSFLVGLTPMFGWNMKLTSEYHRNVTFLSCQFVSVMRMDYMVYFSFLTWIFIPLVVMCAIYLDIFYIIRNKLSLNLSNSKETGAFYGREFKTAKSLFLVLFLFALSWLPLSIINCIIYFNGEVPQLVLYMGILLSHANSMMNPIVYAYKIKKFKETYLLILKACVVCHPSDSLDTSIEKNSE
Nature of the experiment: Ability to displace radioligand [125I]AB-MECA from membrane of HEK 293 cells stably transfected with human adenosine A3 receptor cDNA. It counts as cell membranes, HEK293.

The target of experiment [3] is Adenosine receptor A2a (Rattus norvegicus, UniProt P30543).
Chain of Adenosine receptor A2a (P30543 whole entry): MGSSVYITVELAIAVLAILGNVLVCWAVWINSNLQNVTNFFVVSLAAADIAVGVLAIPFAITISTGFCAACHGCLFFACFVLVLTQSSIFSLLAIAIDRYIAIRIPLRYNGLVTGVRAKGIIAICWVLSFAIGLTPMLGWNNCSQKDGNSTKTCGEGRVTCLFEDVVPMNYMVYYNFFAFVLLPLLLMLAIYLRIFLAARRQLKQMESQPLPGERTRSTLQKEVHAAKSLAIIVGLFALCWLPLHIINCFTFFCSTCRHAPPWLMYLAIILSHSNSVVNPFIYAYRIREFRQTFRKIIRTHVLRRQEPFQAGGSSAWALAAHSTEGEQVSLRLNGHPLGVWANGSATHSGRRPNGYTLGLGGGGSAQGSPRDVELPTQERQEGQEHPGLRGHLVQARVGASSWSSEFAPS
The target of experiment [4] is T3, Adenosine receptor A2b (Homo sapiens) (UniProt P29275).
T3 sequence (whole entry): T1 sequence (P29275 whole entry)
Nature of the experiment: Effective concentration for cAMP production in CHO-KI cells expressing human adenosine A2B receptor at 100 uM. The experiment is classed as functional, cell-based.

Experiment [5] addresses T4, Adenosine receptor A1 (Rattus norvegicus, UniProt P25099).
T4 sequence (P25099 whole entry): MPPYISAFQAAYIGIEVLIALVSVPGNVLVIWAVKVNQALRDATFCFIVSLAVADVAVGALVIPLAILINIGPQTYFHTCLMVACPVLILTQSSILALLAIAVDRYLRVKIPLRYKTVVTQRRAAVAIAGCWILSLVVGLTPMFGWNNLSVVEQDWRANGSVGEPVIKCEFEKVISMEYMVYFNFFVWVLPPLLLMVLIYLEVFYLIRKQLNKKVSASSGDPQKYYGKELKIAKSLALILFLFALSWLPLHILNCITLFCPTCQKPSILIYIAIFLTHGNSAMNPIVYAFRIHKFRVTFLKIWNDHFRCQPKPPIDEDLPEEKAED
Nature of the experiment: Ability to displace radioligand [3H]- DPCPX from adenosine A1 receptor on rat cortical membrane in the presence of 1 mM of GTP.

The nature of experiment [6]: GTP shift was determined.
Experiment [7] deals with T4, Adenosine receptor A1.
Description: Ability to displace radioligand [3H]- DPCPX from adenosine A1 receptor on rat cortical membrane in the absence of GTP

For orientation: EC50 means the concentration that produces a half-maximal response. The term Ki denotes the equilibrium dissociation constant of an inhibitor or competing ligand from its target. What is called Emax is the maximal effect, on the per cent scale that the assay sets.

As to `Nc1ncnc2c1ncn2[C@@H]1O[C@H](C(=O)NC2CCC2)[C@@H](O)[C@H]1O`, in experiment [1], the EC50 was found to be 33000 nM. Also, the results for the Ki in experiment [2] and in experiment [3] were 23 nM and 49 nM, respectively.

In turn, `CNC(=O)[C@H]1O[C@@H](n2cnc3c(NCc4cccc(I)c4)ncnc32)[C@H](O)[C@@H]1O` [IB-MECA] gave an EC50 in experiment [1] of 11000 nM.

The molecule `CC(C)(C)NC(=O)[C@H]1O[C@@H](n2cnc3c(N)ncnc32)[C@H](O)[C@@H]1O` yielded an Emax in experiment [4] of 10%. For the same molecule, the Ki in experiment [5] was 6950 nM; in experiment [2], 8500 nM; in experiment [7] it was 2730 nM; in experiment [3] it was 1340 nM. In addition, in experiment [6], the GTP shift was 2.6.

`CC(C)NC(=O)[C@H]1OC(n2cnc3c(N)ncnc32)[C@H](O)[C@@H]1O` (some centres not stated) returned an EC50 in experiment [1] of 37000 nM. The Ki worked out at 804 nM in experiment [5], 211 nM in experiment [2], 257 nM in experiment [7] and 160 nM in experiment [3]. Moreover, the GTP shift in experiment [6] stood at 3.1.

As for `Nc1ncnc2c1ncn2[C@@H]1O[C@H](C(=S)NC2CC2)[C@@H](O)[C@H]1O`, a half-maximal effect in experiment [1] (EC50) was put at 13000 nM. The Ki in experiment [5] came out at 459 nM; in experiment [2] it was 2280 nM; in experiment [7] it was 137 nM; in experiment [3] it was 130 nM. Moreover, in experiment [6], the GTP shift stood at 3.4.

As to `CONC(=O)[C@H]1O[C@@H](n2cnc3c(N)ncnc32)[C@H](O)[C@@H]1O`, the EC50 in experiment [1] amounted to 45000 nM. Also, the Ki in experiment [5] stood at 1960 nM; in experiment [2], 85.3 nM; in experiment [7] it was 1620 nM; in experiment [3], 623 nM. Besides, the GTP shift in experiment [6] worked out at 2.4.

As to `CCNC(=S)[C@H]1O[C@@H](n2cnc3c(N)ncnc32)[C@H](O)[C@@H]1O`, the midpoint of the response in experiment [1], the EC50, lay at 16000 nM. Also, the Ki in experiment [5] was 478 nM; in experiment [2], 569 nM; in experiment [7], 141 nM; in experiment [3] it was 130 nM. For the same molecule, the GTP shift in experiment [6] stood at 3.4.

In experiment [1], `Nc1ncnc2c1ncn2[C@@H]1O[C@H](C(=O)NCCCl)[C@@H](O)[C@H]1O` registered an EC50 of 32000 nM. The Ki in experiment [5] was 890 nM; in experiment [2] it was 322 nM; in experiment [7] it was 248 nM; in experiment [3], 410 nM. Further, the GTP shift in experiment [6] turned out to be 3.6.

The molecule `CNC(=O)[C@H]1O[C@@H](n2cnc3c(N)ncnc32)[C@H](O)[C@@H]1O` registered an EC50 in experiment [1] of 45000 nM. The Ki is 6840 nM in experiment [5], 6.4 nM in experiment [2] and 1080 nM in experiment [7].

`Nc1ncnc2c1ncn2[C@@H]1O[C@H](C(=O)NC2CCCC2)[C@@H](O)[C@H]1O`: the EC50 in experiment [1] stood at 54000 nM. Besides, the Ki came to 4900 nM in experiment [5], 32 nM in experiment [2], 770 nM in experiment [7] and 610 nM in experiment [3]. Besides, in experiment [6], the GTP shift amounted to 6.4.

As to `Nc1ncnc2c1ncn2[C@@H]1O[C@H](C(=O)NC2CC2)[C@@H](O)[C@H]1O`, the response in experiment [1] was half-maximal at 5300 nM (EC50). This molecule returned a Ki in experiment [2] of 108 nM.
